Non-standard residues stand in square brackets, D forms with d. No end group written: not given here. sY = N[C@@H](Cc1ccc(OS(=O)(=O)O)cc1)C(=O)O
Tests used:
[1] = tested on: Y1 binding to purified glycocalicin; experiment: ELISA: effect of synthetic GPIbα peptides on Y1 binding to purified glycocalicin; set-up: species or system human; details: 0.25 μg/well Y1
Method: ELISA assays were developed to evaluate the effect of the GPIb derived synthetic peptides on the binding of Y1 to purified glycocalicin. In addition, FACS analysis using washed platelets was carried out. To evaluate the importance of sulfated tyrosine within the Y1 binding site of GPIb, a competitive binding FACS analysis was used. Y1-scFv at a concentration of 1 μg was preincubated with different peptides at concentrations of 2.5 and 200 μM. After a preincubation for 30 minutes at room temperature the mixture was added to a tube containing ˜10^7 washed platelets and the binding of Y1 to the washed platelets was assessed using polyclonal rabbit anti-scFv-PE. The inhibitory effect of the peptides compared to control binding (Y1 alone) was evaluated by measuring the residual binding of Y1 to washed platelets. The peptides and the results are described in Table 1 and are similar to results that were observed using the same peptides in an ELISA assay (Table B). In both assays, a control level of Y1 binding was determined, as follows. A polystyrene microtiter maxisorb plate was coated with (a) purified glycocalicin or (b) washed platelets. […] The plate was then incubated with rabbit anti-scFv followed by addition of anti rabbit —HRP (horse radish peroxidase) and HRP substrate. The level of anti rabbit —HRP binding was measured by the intensity of the color produced, and the level of anti rabbit —HRP binding correlates with the level of binding of anti Y1-scFv and the level of binding of Y1. The optical density was measured at A405. Each sample was assayed in duplicate, and the average was calculated.
The effect of synthetic GPIbα peptides on Y1 binding to purified glycocalicin was evaluated by mixing varying concentrations of the peptides with a constant amount of Y1. After a preincubation for 30 minutes at room temperature, the mixture was added to a polystyrene microtiter maxisorb plate coated with purified glycocalicin, as described for evaluation of Y1 binding in the absence of peptides. The inhibitory effect of the peptides was evaluated by measuring the residual binding of Y1 to glycocalicin using rabbit anti Y1scFv and anti rabbit —HRP antibodies, as described for evaluation of Y1 binding in the absence of peptides. This study was performed with four peptides representing various subsets of the sequence 268 to 285 and a control peptide. Each peptide was tested at different concentrations: 200 μM, 25 μM, 2.5 μM, and 0.5 μM.

[2] = tested on: Y1 binding to washed platelets; experiment: Comparative FACS: effect of synthetic GPIbα peptides on Y1 binding to washed platelets; set-up: species or system human
Method: ELISA assays were developed to evaluate the effect of the GPIb derived synthetic peptides on the binding of Y1 to purified glycocalicin. In addition, FACS analysis using washed platelets was carried out. To evaluate the importance of sulfated tyrosine within the Y1 binding site of GPIb, a competitive binding FACS analysis was used. Y1-scFv at a concentration of 1 μg was preincubated with different peptides at concentrations of 2.5 and 200 μM. After a preincubation for 30 minutes at room temperature the mixture was added to a tube containing ˜10^7 washed platelets and the binding of Y1 to the washed platelets was assessed using polyclonal rabbit anti-scFv-PE. The inhibitory effect of the peptides compared to control binding (Y1 alone) was evaluated by measuring the residual binding of Y1 to washed platelets. The peptides and the results are described in Table 1 and are similar to results that were observed using the same peptides in an ELISA assay (Table B). In both assays, a control level of Y1 binding was determined, as follows. A polystyrene microtiter maxisorb plate was coated with (a) purified glycocalicin or (b) washed platelets. After extensive washing, 0.5 μg/well of Y1 was added. The plate was then incubated with rabbit anti-scFv followed by addition of anti rabbit —HRP (horse radish peroxidase) and HRP substrate. The level of anti rabbit —HRP binding was measured by the intensity of the color produced, and the level of anti rabbit —HRP binding correlates with the level of binding of anti Y1-scFv and the level of binding of Y1. The optical density was measured at A405. Each sample was assayed in duplicate, and the average was calculated.

[3] = tested on: KG-1 cells; experiment: AML KG-1 model in SCID/NOD mice; assay type: in vivo
Method: The in vivo mouse model for human AML uses SCID/NOD mice (Jackson Laboratories) inoculated with KG-1 cells derived from a human AML cell line.
In a first experiment, NOD/SCID mice were pretreated with 100 mg/kg CYTOXAN®. Four days post CYTOXANT injection, KG-1 cells were injected intravenously into the tail vein of six groups of mice. (Table N, Groups 2 and 5-9). One group of mice (Table N, Group 1) was injected with PBS alone (control).
Beginning 19 days post KG-1 injection mice were treated with: CONY1, Doxorubicin, CONY1-Doxorubicin conjugate, or Mylotarg®. (Mylotarg® is a monoclonal antibody (anti CD33) conjugated chemically to calcheamicin recently approved by the FDA for treatment of AML patients age 60 and over in a first relapse.) Mice were treated once or three times per week for three weeks. One group (group 2) of KG-1 inoculated mice Were left untreated. (Table N). Two other groups of mice (groups 3 and 4) were injected with KG-1 cells that were previously incubated with CONY1 or 181-scFv (a negative, non-specific control antibody) in serum free RPMI containing 1% BSA at 4° C. for 1 h. The antibodies were used at a concentration of 0.25 mg scFv/10^8 cells (75 μg/mouse). Before injection into the mice the preincubated KG-1 cells were washed are resuspended in RPMI. The KG-1 cells in RPMI were inoculated into mice at a concentration of 75 μg scFv/0.2 ml RPMI per mouse. Group 3 mice were inoculated with KG-1+CONY1, and group 4 mice were inoculated with KG-1+181-scFv. (Table N). […]
Mice were sacrificed from 60 to 65 days post cell injection. Bone marrow and blood samples were analyzed by flow cytometry using mouse anti human CD34-FITC (IQP 144F) (or anti CD44-FITC (MCA89F, Serotec)) and Y1-Biotin/SAV-PE. […]
An additional experiment was performed in which SCID-NOD mice were i.v. injected with 3×10^4 MOLT-4 cells/mouse 5 days post treatment with cyclophosphamide. […] Bone marrow was extracted and analyzed by FACS analysis using a commercially available antiCD44 antibody for the detection of MOLT-4 cells in the mice bone marrow cell population.

[4] = tested on: scFv Y1 binding to glycocalicin; experiment: Competitive binding ELISA of sulfated peptides (scFv Y1 binding to immobilized glycocalicin); set-up: species or system human; details: peptide 1, 10 and 100 μM, preincubated 10 minutes with scFv Y1
Method: A competitive binding ELISA assay was used to assess the importance of the presence and position of sulfated tyrosines to the binding of peptides to Y1.
Glycocalicin was immobilized on a Maxisorb plate. scFv Y1 was preincubated with a peptide of interest for 10 minutes at three different concentrations (1, 10 and 100 μM) in order to observe a dose response. (Table 12). After preincubation, the mixture (Y1+peptide) was added to the plate, and binding of scFv Y1 was assessed using polyclonal rabbit anti-VL, which recognizes the VL chain of scFv Y1, followed by anti-rabbit-HRP. In mixtures in which the peptide bound to scFv Y1, a decrease in the binding of scFv Y1 to glycocalicin compared to control binding was observed.

| Compound | Residual Binding of Y1 (% of baseline) ([1]; peptide 0.5 μM) | Residual Binding of Y1 (% of baseline) ([1]; peptide 2.5 μM) | Residual Binding of Y1 (% of baseline) ([1]; peptide 25 μM) | Residual Binding of Y1 (% of baseline) ([1]; peptide 200 μM) | Residual Binding of Y1 (% of baseline) (Geo Mean) ([2]; peptide 2.5 μM) | Residual Binding of Y1 (% of baseline) (Geo Mean) ([2]; peptide 200 μM) | percentage of KG-1 cells in bone marrow compared to untreated group 2 (in words) ([3]; 0.1 mg/kg free Doxorubicin, 3 times per week (group 6)) | KG-1 cells in bone marrow (in words) ([3]; 0.2 mg/kg, 1 time per week (group 9)) | development of the malignancy / prevalence of bone marrow cancer (in words) ([3]; additional experiment, day 60, CONY1 scFv 75 μg/mouse three times/week, Mylotarg 7 μg/mouse once a week) | inhibition of Y1 binding to glycocalicin (in words) [4] |
| --- | --- | --- | --- | --- | --- | --- | --- | --- | --- | --- |
| GDEGDTDLYDYYPEEDTE [P-1, residues 268-285 of GPIbα, non-sulfated] | 88 % of baseline | 94 % of baseline | 71 % of baseline | 61 % of baseline | 106 % of baseline | 87 % of baseline |  |  |  |  |
| TDLY*DY*Y*PEEDTE (TDL[sY]D[sY][sY]PEEDTE) [P-2-S, residues 273-285 of GPIbα, Y* sulfated tyrosine] | 78 % of baseline | 52 % of baseline | 15 % of baseline |  | 61 % of baseline | 7 % of baseline |  |  |  |  |
| REEGRQHFFLLEGRSSYS [negative control peptide, reference compound] | 121 % of baseline | 100 % of baseline | 89 % of baseline | 85 % of baseline | 96 % of baseline | 119 % of baseline |  |  |  |  |
| COc1cccc2c1C(=O)c1c(O)c3c(c(O)c1C2=O)C[C@@](O)(C(=O)CO)C[C@@H]3O[C@H]1C[C@H](N)[C@H](O)[C@H](C)O1 [Doxorubicin] |  |  |  |  |  |  | statistically significant (p<0.05) lower percentage |  |  |  |
| Mylotarg: monoclonal antibody (anti CD33) conjugated chemically to calcheamicin, FDA approved for AML |  |  |  |  |  |  |  | free of KG 1 cells | completely inhibited |  |
| GDEGDTDLY*DY*Y*PEEDTE (GDEGDTDL[sY]D[sY][sY]PEEDTE) [P-1-S, residues 268-285 of GPIbα, Y* sulfated tyrosine] | 89 % of baseline | 62 % of baseline | 25 % of baseline | 0 % of baseline | 41 % of baseline | 5 % of baseline |  |  |  | did inhibit |
| GDEGDTDLY*DY*Y*P (GDEGDTDL[sY]D[sY][sY]P) [P-3-S, residues 268-280 of GPIbα, Y* sulfated tyrosine] | 80 % of baseline | 67 % of baseline | 21 % of baseline |  | 82 % of baseline | 26 % of baseline |  |  |  |  |

— patent US20040002450A1, “Y17 - isolated molecules comprising epitopes containing sulfated moieties, antibodies to such epitopes, and uses thereof” (priority 2000, published 2004)
